Results published in US20260274814A1, “THIENYL COMPOUNDS FOR THE TREATMENT OF A CENTRAL NERVOUS SYSTEM DISEASE OR DISORDER” (Coreterra Therapeutics, Inc., priority 2023, published 2026).
Counter-ions that a name gives are not always drawn. Like-named read-outs stand apart in the source and are kept apart here.

Test system: mice
Assay: Neuropharmacological Assay (SmartCube): automated behavioral signature of compound-treated mice compared with a database of reference drug classes
Type: in vivo
Settings: for minimal effective dose: Mus musculus, ip, read-out: MED
Method in brief: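 Compounds in N-methyl-2-pyrrolidone/polyethylene glycol/propylene glycol were given i.p. 15 min before testing, at 3 doses; values shown are for 3.0 mg/kg. Video-captured behaviour was matched by algorithm against reference drug classes, giving a probability per class. MED: lowest dose reaching ≥45% total activity.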

[1] = SmartCube class probability, 3.0 mg/kg i.p., 15 min before test
[2] = SmartCube class probability, 3.0 mg/kg i.p., 15 min before test, 3 mg/kg
[3] = minimal effective dose: dose having 45% or more total activity in SmartCube, i.p., if only one dose tested, that dose is shown
[4] = minimal effective dose: dose having 45% or more total activity in SmartCube, i.p., if only one dose was tested, that dose is shown
[5] = SmartCube probability class, 3.0 mg/kg dose, i.p. 15 min before the behavioral test

Row | SMILES | AG [1] | AN [1] | AP [1] | AX [1] | CE [1] | MS [1] | PS [1] | SH [1] | minimal effective dose [4] [mg/kg] | AD [5] | AG [5] | AN [5] | AP [5] | AX [5] | CE [5] | HL [5] | MS [5] | PS [5] | SH [5] | UK [5] | further results
1 | CNC1(C)COc2c(C)csc2C1.Cl (stereo not shown) [Compound 240, N, 3,6-trimethyl-6,7-dihydro-5H-thieno[3,2-b]pyran-6-amine hydroachloride] | ND (^ <4%) | ND (^ <4%) | ND (^ <4%) | ND (^ <4%) | ND (^ <4%) | ND (^ <4%) | ND (^ <4%) | ND (^ <4%) | – | – | – | – | – | – | – | – | – | – | – | – | HL [1]: ND (^ <4%); AD [2]: + (≥4%); UK [2]: +++ (≥49%); MED [3]: 3 mpk
2 | CNC1COc2c(C)csc2C1 (stereo not shown) [Compound 247, N, 3-dimethyl-6,7-dihydro-5H-thieno[3,2-b]pyran-6-amine hydrochloride] | ND (^ <4%) | ND (^ <4%) | ++++ (≥74%) | ND (^ <4%) | ND (^ <4%) | ND (^ <4%) | ND (^ <4%) | ND (^ <4%) | – | – | – | – | – | – | – | – | – | – | – | – | minimal effective dose [3]: 3 mg/kg; AD [1]: ND (^ <4%); HL [1]: ND (^ <4%); UK [1]: ND (^ <4%)
3 | CNC1COc2c(C(F)(F)F)csc2C1 (stereo not shown) [Compound 248, N-methyl-3-(trifluoromethyl)-6,7-dihydro-5H-thieno[3,2-b]pyran-6-amine hydrochloride] | – | ND (^ <4%) | ND (^ <4%) | ND (^ <4%) | ND (^ <4%) | ND (^ <4%) | ND (^ <4%) | ND (^ <4%) | – | – | – | – | – | – | – | – | – | – | – | – | minimal effective dose [3]: 1 mg/kg; AD [1]: +++ (≥49%); HL [1]: ND (^ <4%); UK [1]: ND (^ <4%)
4 | CNC1COc2c(csc2C(F)(F)F)C1 (stereo not shown) [Compound 260, N-methyl-7-(trifluoromethyl)-3,4-dihydro-2H-thieno[3,4-b]pyran-3-amine hydrochloride] | ND (^ <4%) | ND (^ <4%) | ND (^ <4%) | ND (^ <4%) | ND (^ <4%) | ND (^ <4%) | ND (^ <4%) | ND (^ <4%) | – | – | – | – | – | – | – | – | – | – | – | – | minimal effective dose [3]: 3 mg/kg; AD [1]: + (≥4%); HL [1]: ND (^ <4%); UK [1]: +++ (≥49%)
5 | CNC1(C)COc2ccsc2C1 (stereo not shown) [Compound 266, N, 6-dimethyl-5,7-dihydrothieno[3,2-b]pyran-6-amine formate salt] | ND (^ <4%) | ND (^ <4%) | ND (^ <4%) | ND (^ <4%) | ND (^ <4%) | ND (^ <4%) | ND (^ <4%) | ND (^ <4%) | – | – | – | – | – | – | – | – | – | – | – | – | minimal effective dose [3]: > 3 mg/kg; AD [1]: ND (^ <4%); UK [1]: + (≥4%)
6 | CNC1(C)COc2cc(C)sc2C1 (stereo not shown) [Compound 285, N, 2,6-trimethyl-5,7-dihydrothieno[3,2-b]pyran-6-amine hydrochloride] | – | – | – | – | – | – | – | – | 3 | ND (^ <4%) | ND (^ <4%) | ND (^ <4%) | ND (^ <4%) | ND (^ <4%) | ND (^ <4%) | ND (^ <4%) | ND (^ <4%) | ND (^ <4%) | ND (^ <4%) | +++ (≥49%) | –
7 | CNC1COc2scc(C)c2C1 (stereo not shown) [Compound 308, N, 5-dimethyl-3,4-dihydro-2H-thieno[2,3-b]pyran-3-amine hydrochloride] | – | – | – | – | – | – | – | – | < 3 | ND (^ <4%) | ND (^ <4%) | ND (^ <4%) | ++++ (≥74%) | ND (^ <4%) | ND (^ <4%) | ND (^ <4%) | ND (^ <4%) | ND (^ <4%) | ND (^ <4%) | ND (^ <4%) | –
8 | NC1Cc2ccsc2C1 (stereo not shown) [Compound 311, 5,6-dihydro-4H-cyclopenta[b]thiophen-5-amine hydrochloride] | – | – | – | – | – | – | – | – | 3 | ++ (≥24%) | ND (^ <4%) | ND (^ <4%) | ND (^ <4%) | ND (^ <4%) | ND (^ <4%) | ND (^ <4%) | ND (^ <4%) | ND (^ <4%) | ND (^ <4%) | +++ (≥49%) | –
9 | CNC1COc2scc(C#N)c2C1 (stereo not shown) [Compound 322, 3-(methylamino)-3,4-dihydro-2H-thieno[2,3-b]pyran-5-carbonitrile hydrochloride] | – | – | – | – | – | – | – | – | 3 | ND (^ <4%) | ND (^ <4%) | ND (^ <4%) | +++ (≥49%) | ND (^ <4%) | ND (^ <4%) | ND (^ <4%) | ND (^ <4%) | ND (^ <4%) | ND (^ <4%) | ++ (≥24%) | –
10 | NC1CCCc2ccsc2C1 (stereo not shown) [Compound 323, 5,6,7,8-tetrahydro-4H-cyclohepta[b]thiophen-7-amine hydrochloride] | – | – | – | – | – | – | – | – | 3 | ++ (≥24%) | ND (^ <4%) | ND (^ <4%) | ++ (≥24%) | + (≥4%) | ND (^ <4%) | ND (^ <4%) | ND (^ <4%) | ND (^ <4%) | ND (^ <4%) | + (≥4%) | –
11 | CNC1CCCc2sccc2C1 (stereo not shown) [Compound 326, N-methyl-5,6,7,8-tetrahydro-4H-cyclohepta[b]thiophen-5-amine hydrochloride] | – | – | – | – | – | – | – | – | 3 | ND (^ <4%) | ND (^ <4%) | ND (^ <4%) | ND (^ <4%) | ++ (≥24%) | ND (^ <4%) | ND (^ <4%) | ND (^ <4%) | ND (^ <4%) | ND (^ <4%) | ++ (≥24%) | –
12 | CNC1CCc2ccsc2CC1 (stereo not shown) [Compound 327, N-methyl-5,6,7,8-tetrahydro-4H-cyclohepta[b]thiophen-6-amine hydrochloride] | – | – | – | – | – | – | – | – | 3 | ND (^ <4%) | ND (^ <4%) | ND (^ <4%) | ND (^ <4%) | ++ (≥24%) | ND (^ <4%) | ND (^ <4%) | ND (^ <4%) | ND (^ <4%) | ND (^ <4%) | +++ (≥49%) | –
13 | CNC1(C)Cc2ccsc2C1 (stereo not shown) [Compound 328, N, 5-dimethyl-5,6-dihydro-4H-cyclopenta[b]thiophen-5-amine hydrochloride] | – | – | – | – | – | – | – | – | 3 | ++ (≥24%) | ND (^ <4%) | ND (^ <4%) | ND (^ <4%) | + (≥4%) | ND (^ <4%) | + (≥4%) | ND (^ <4%) | ++ (≥24%) | ND (^ <4%) | + (≥4%) | –
